≈ marks a conversion by molar mass, not a printed value.
Experiments:
[1] = system: Staphylococcus aureus; assay: Antimicrobial activity against Staphylococcus aureus ATCC 29213 incubated overnight under aerobic condition by microbroth dilution method; assay type: functional
[2] = system: Staphylococcus aureus; assay: Antimicrobial activity against Staphylococcus aureus USA300 incubated overnight under aerobic condition by microbroth dilution method; assay type: functional
[3] = biological target: T1, ATP-dependent Clp protease proteolytic subunit (Staphylococcus aureus (strain NCTC 8325), UniProt Q2G036); assay: Displacement of ADEP2591 from Staphylococcus aureus ClpP expressed in Escherichia coli BL21 (DE3) incubated for 120 mins by fluorescence polarization assay
T1 sequence (Q2G036 whole entry): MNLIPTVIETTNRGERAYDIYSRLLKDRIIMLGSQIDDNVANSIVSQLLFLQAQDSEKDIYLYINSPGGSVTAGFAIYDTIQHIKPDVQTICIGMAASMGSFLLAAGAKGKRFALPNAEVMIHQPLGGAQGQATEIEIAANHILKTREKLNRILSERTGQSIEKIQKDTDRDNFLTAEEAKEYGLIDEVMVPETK

[4] = system: Vero; assay: Cytotoxicity in African green monkey Vero cells assessed as reduction in cell viability incubated for 72 hrs by cell-titer-Glo luminescent cell viability assay; assay type: cell-based; settings: Chlorocebus sabaeus
[5] = system: Bacillus subtilis; assay: Antimicrobial activity against Bacillus subtilis ATCC 23857 incubated overnight under aerobic condition by microbroth dilution method; assay type: functional
[6] = system: Enterococcus faecalis; assay: Antimicrobial activity against Enterococcus faecalis ATCC 33186 incubated overnight under aerobic condition by microbroth dilution method; assay type: functional
[7] = system: Staphylococcus aureus; assay: Antimicrobial activity against Staphylococcus aureus USA300 deficient in ClpP incubated overnight under aerobic condition by microbroth dilution method; assay type: functional
[8] = system: Staphylococcus aureus; assay: Antimicrobial activity against Staphylococcus aureus NRS70 incubated overnight under aerobic condition by microbroth dilution method; assay type: functional
[9] = system: Streptococcus pyogenes; assay: Antimicrobial activity against Streptococcus pyogenes ATCC 700294 incubated overnight under aerobic condition by microbroth dilution method; assay type: functional
[10] = system: Streptococcus pneumoniae; assay: Antimicrobial activity against Streptococcus pneumoniae R6 incubated overnight under aerobic condition by microbroth dilution method; assay type: functional
[11] = biological target: T1, ATP-dependent Clp protease proteolytic subunit; assay: Activation of Staphylococcus aureus ClpP using BODIPY-FL-casein as substrate incubated for 30 mins by Enz-Check protease assay

MIC [1] [µM]	MIC [2] [µM]	MIC [7] [µM]	SMILES	further results
3.1 (≈ 2.55 µg/mL)	3.1 (≈ 2.55 µg/mL)	–	C[C@H]1C[C@H]2C(=O)OC[C@H](NC(=O)[C@H](Cc3cc(F)cc(F)c3)NC(=O)Nc3ccc4c(c3)OCO4)C(=O)N3CCC[C@H]3C(=O)N3CCCC[C@H]3C(=O)N[C@@H](C)C(=O)N2C1	–
–	–	–	C[C@@H]1C[C@H]2C(=O)O[C@@H](C)[C@H](NC(=O)[C@H](Cc3cc(F)cc(F)c3)NC(=O)Nc3ccc(OC(F)(F)F)cc3)C(=O)N3CCC[C@H]3C(=O)N(C)[C@@H]([C@H](C)O)C(=O)N[C@@H](C)C(=O)N2C1	IC50 [3]: 7.53 µM; IC50 [4]: 23.9 µM
–	–	–	CN(C)[C@@H]1C(O)=C(C(N)=O)C(=O)[C@@]2(O)C(O)=C3C(=O)c4c(O)cccc4[C@@](C)(O)[C@H]3C[C@@H]12 [TETRACYCLINE]	MIC [5]: 1.6 µM (≈ 0.711 µg/mL); MIC [6]: 0.05 µM (≈ 0.0222 µg/mL)
0.2 (≈ 0.156 µg/mL)	0.2 (≈ 0.156 µg/mL)	100 (≈ 78.2 µg/mL)	CCc1ccc(NC(=O)N[C@@H](Cc2cc(F)cc(F)c2)C(=O)N[C@@H]2C(=O)N3CCC[C@H]3C(=O)N(C)[C@@H](C)C(=O)N[C@@H](C)C(=O)N3CCC[C@H]3C(=O)O[C@H]2C)cc1	MIC [8]: 0.2 µM (≈ 0.156 µg/mL)
0.8 (≈ 0.67 µg/mL)	0.8 (≈ 0.67 µg/mL)	–	C[C@H]1C[C@H]2C(=O)O[C@@H](C)[C@H](NC(=O)[C@H](Cc3cc(F)cc(F)c3)NC(=O)Nc3ccc4c(c3)OCO4)C(=O)N3CCC[C@H]3C(=O)N3CCCC[C@H]3C(=O)N[C@@H](C)C(=O)N2C1	–
50 (≈ 16.6 µg/mL)	50 (≈ 16.6 µg/mL)	–	CN[C@@H]1[C@H](O)[C@H](NC)[C@H]2O[C@@]3(O)C(=O)C[C@@H](C)O[C@H]3O[C@@H]2[C@H]1O [SPECTINOMYCIN]	–
–	–	100 (≈ 80.8 µg/mL)	Cc1ccc(NC(=O)N[C@@H](Cc2cc(F)cc(F)c2)C(=O)N[C@@H]2C(=O)N3CCC[C@H]3C(=O)N3CCCC[C@H]3C(=O)N[C@@H](C)C(=O)N3C[C@@H](C)C[C@H]3C(=O)O[C@H]2C)cc1	MIC [9]: 0.4 µM (≈ 0.323 µg/mL)
0.1 (≈ 0.0796 µg/mL)	0.1 (≈ 0.0796 µg/mL)	–	CCc1ccc(NC(=O)N[C@@H](Cc2cc(F)cc(F)c2)C(=O)N[C@@H]2C(=O)N3CCC[C@H]3C(=O)N(C)[C@@H](C)C(=O)N[C@@H](C)C(=O)N3C[C@@H](C)C[C@H]3C(=O)O[C@H]2C)cc1	–
1.56 (≈ 0.756 µg/mL)	–	–	NC[C@H]1O[C@H](O[C@H]2[C@H](O)[C@@H](O[C@H]3O[C@H](CO)[C@@H](O)[C@H](N)[C@H]3O)[C@H](N)C[C@@H]2N)[C@H](O)[C@@H](O)[C@@H]1O [KANAMYCIN]	MIC [5]: 0.1 µM (≈ 0.0485 µg/mL); MIC [9]: 12.5 µM (≈ 6.06 µg/mL)
3.1 (≈ 2.55 µg/mL)	3.1 (≈ 2.55 µg/mL)	–	C[C@@H]1NC(=O)[C@@H]2CCCCN2C(=O)[C@@H]2CCCN2C(=O)[C@@H](NC(=O)[C@H](Cc2cc(F)cc(F)c2)NC(=O)Nc2ccc3c(c2)OCO3)[C@H](C)OC(=O)[C@@H]2CCCN2C1=O	MIC [8]: 3.1 µM (≈ 2.55 µg/mL); MIC [9]: < 0.1 µM
0.4 (≈ 0.331 µg/mL)	–	–	C[C@H]1C[C@H]2C(=O)OC[C@H](NC(=O)[C@H](Cc3ccccc3)NC(=O)Nc3ccc(OC(F)(F)F)cc3)C(=O)N3CCC[C@H]3C(=O)N3CCCC[C@H]3C(=O)N[C@@H](C)C(=O)N2C1	MIC [8]: 0.4 µM (≈ 0.331 µg/mL)
–	–	100 (≈ 82.6 µg/mL)	CCc1ccc(NC(=O)N[C@@H](Cc2cc(F)cc(F)c2)C(=O)N[C@@H]2C(=O)N3CCC[C@H]3C(=O)N(C)[C@@H]([C@H](C)O)C(=O)N[C@@H](C)C(=O)N3C[C@H](C)C[C@H]3C(=O)O[C@H]2C)cc1	IC50 [4]: 24.9 µM
3.13 (≈ 2.42 µg/mL)	–	–	COc1cccc(NC(=O)N[C@@H](Cc2ccccc2)C(=O)N[C@H]2COC(=O)[C@@H]3C[C@@H](C)CN3C(=O)[C@H](C)NC(=O)[C@@H]3CCCCN3C(=O)[C@@H]3CCCN3C2=O)c1	MIC [8]: 3.13 µM (≈ 2.42 µg/mL)
–	–	–	C[C@H]1C[C@H]2C(=O)O[C@@H](C)[C@H](NC(=O)[C@H](Cc3cc(F)cc(F)c3)NC(=O)Nc3ccc(OC(F)(F)F)cc3)C(=O)N3CCC[C@H]3C(=O)N(C)[C@@H]([C@H](C)O)C(=O)N[C@@H](C)C(=O)N2C1	IC50 [4]: 25.4 µM
0.2 (≈ 0.168 µg/mL)	0.2 (≈ 0.168 µg/mL)	100 (≈ 83.8 µg/mL)	C[C@@H]1NC(=O)[C@H](C)N(C)C(=O)[C@@H]2CCCN2C(=O)[C@@H](NC(=O)[C@H](Cc2cc(F)cc(F)c2)NC(=O)Nc2ccc(OC(F)(F)F)cc2)[C@H](C)OC(=O)[C@@H]2CCCN2C1=O	MIC [8]: 0.2 µM (≈ 0.168 µg/mL)
–	–	> 200	Cc1ccc(NC(=O)N[C@@H](Cc2ccccc2)C(=O)N[C@H]2COC(=O)[C@@H]3C[C@H](C)CN3C(=O)[C@H](C)NC(=O)[C@@H]3CCCCN3C(=O)[C@@H]3CCCN3C2=O)cc1	–
0.1 (≈ 0.0868 µg/mL)	–	100 (≈ 86.8 µg/mL)	C[C@H]1C[C@H]2C(=O)O[C@@H](C)[C@H](NC(=O)[C@H](Cc3cc(F)cc(F)c3)NC(=O)Nc3ccc(OC(F)(F)F)cc3)C(=O)N3C[C@H](O)C[C@H]3C(=O)N(C)[C@@H](C)C(=O)N[C@@H](C)C(=O)N2C1	MIC [8]: 0.1 µM (≈ 0.0868 µg/mL)
0.05 (≈ 0.0439 µg/mL)	0.05 (≈ 0.0439 µg/mL)	–	C[C@@H]1C[C@H]2C(=O)O[C@@H](C)[C@H](NC(=O)[C@H](Cc3cc(F)cc(F)c3)NC(=O)Nc3ccc(OC(F)(F)F)cc3)C(=O)N3CCC[C@H]3C(=O)N3CCCC[C@H]3C(=O)N[C@@H](C)C(=O)N2C1	–
0.6 (≈ 0.463 µg/mL)	–	–	CCc1cccc(NC(=O)N[C@@H](Cc2ccccc2)C(=O)N[C@H]2COC(=O)[C@@H]3C[C@@H](C)CN3C(=O)[C@H](C)NC(=O)[C@@H]3CCCCN3C(=O)[C@@H]3CCCN3C2=O)c1	MIC [8]: 0.6 µM (≈ 0.463 µg/mL)
–	–	–	C[C@H]1C[C@H]2C(=O)O[C@@H](C)[C@H](NC(=O)[C@H](Cc3cc(F)cc(F)c3)NC(=O)Nc3ccc(C(F)(F)F)cc3)C(=O)N3CCC[C@H]3C(=O)N3CCCC[C@H]3C(=O)N[C@@H](C)C(=O)N2C1	MIC [9]: 1.5 µM (≈ 1.29 µg/mL)
–	–	–	C[C@@H]1C[C@H]2C(=O)OC[C@H](NC(=O)[C@H](Cc3ccccc3)NC(=O)Nc3ccc(OC(F)(F)F)cc3)C(=O)N3CCC[C@H]3C(=O)N3CCCC[C@H]3C(=O)N[C@@H](C)C(=O)N2C1	MIC [9]: 0.1 µM (≈ 0.0828 µg/mL)
–	–	100 (≈ 82.6 µg/mL)	CCc1ccc(NC(=O)N[C@@H](Cc2cc(F)cc(F)c2)C(=O)N[C@@H]2C(=O)N3CCC[C@H]3C(=O)N(C)[C@@H]([C@H](C)O)C(=O)N[C@@H](C)C(=O)N3C[C@@H](C)C[C@H]3C(=O)O[C@H]2C)cc1	IC50 [4]: 33.8 µM
–	–	> 200	Cc1ccc(NC(=O)N[C@@H](Cc2cc(F)cc(F)c2)C(=O)N[C@H]2COC(=O)[C@@H]3C[C@@H](F)CN3C(=O)[C@H](C)NC(=O)[C@@H]3CCCCN3C(=O)[C@@H]3CCCN3C2=O)cc1	–
–	–	100 (≈ 80.8 µg/mL)	Cc1ccc(NC(=O)N[C@@H](Cc2cc(F)cc(F)c2)C(=O)N[C@H]2COC(=O)[C@@H]3CC(C)(C)CN3C(=O)[C@H](C)NC(=O)[C@@H]3CCCCN3C(=O)[C@@H]3CCCN3C2=O)cc1	–
–	3.1 (≈ 1 µg/mL)	–	O=C(N[C@H](CO)[C@H](O)c1ccc([N+](=O)[O-])cc1)C(Cl)Cl [CHLORAMPHENICOL]	MIC [8]: 3.1 µM (≈ 1 µg/mL)
–	–	> 200	Cc1ccc(NC(=O)N[C@@H](Cc2cc(F)cc(F)c2)C(=O)N[C@H]2COC(=O)[C@@H]3C[C@H](F)CN3C(=O)[C@H](C)NC(=O)[C@@H]3CCCCN3C(=O)[C@@H]3CCCN3C2=O)cc1	–
–	–	100 (≈ 79.4 µg/mL)	Cc1ccc(NC(=O)N[C@@H](Cc2cc(F)cc(F)c2)C(=O)N[C@H]2COC(=O)[C@@H]3C[C@H](C)CN3C(=O)[C@H](C)NC(=O)[C@@H]3CCCCN3C(=O)[C@@H]3CCCN3C2=O)cc1	–

SMILES	MIC [1] [µM]	MIC [2] [µM]	MIC [7] [µM]	further results
C[C@H]1C[C@H]2C(=O)O[C@@H](C)[C@H](NC(=O)[C@H](Cc3cc(F)cc(F)c3)NC(=O)Nc3ccc(OC(F)(F)F)cc3)C(=O)N3CCC[C@H]3C(=O)N(C)[C@@H](C)C(=O)N[C@@H](C)C(=O)N2C1	0.05 (≈ 0.0426 µg/mL)	0.1 (≈ 0.0852 µg/mL)	25 (≈ 21.3 µg/mL)	MIC [5]: 0.01 µM (≈ 0.00852 µg/mL); MIC [8]: 0.05 µM (≈ 0.0426 µg/mL); MIC [9]: 0.23 µM (≈ 0.196 µg/mL)
Cc1ccc(NC(=O)N[C@@H](Cc2cc(F)cc(F)c2)C(=O)N[C@@H]2C(=O)N3CCC[C@H]3C(=O)N(C)[C@@H]([C@H](C)O)C(=O)N[C@@H](C)C(=O)N3C[C@H](C)C[C@H]3C(=O)O[C@H]2C)cc1	0.05 (≈ 0.0406 µg/mL)	0.1 (≈ 0.0812 µg/mL)	–	MIC [5]: 0.05 µM (≈ 0.0406 µg/mL); MIC [9]: 0.1 µM (≈ 0.0812 µg/mL); MIC [10]: 0.02 µM (≈ 0.0162 µg/mL)
Cc1ccc(NC(=O)N[C@@H](Cc2cc(F)cc(F)c2)C(=O)N[C@@H]2C(=O)N3CCC[C@H]3C(=O)N3CCOC[C@H]3C(=O)N[C@@H](C)C(=O)N3C[C@H](C)C[C@H]3C(=O)O[C@H]2C)cc1	0.003 (≈ 0.00243 µg/mL)	–	> 200	MIC [9]: 0.02 µM (≈ 0.0162 µg/mL); MIC [10]: 0.002 µM (≈ 0.00162 µg/mL)
Cc1ccc(NC(=O)N[C@@H](Cc2cc(F)cc(F)c2)C(=O)N[C@@H]2C(=O)N3CCC[C@H]3C(=O)N3CCCC[C@H]3C(=O)N[C@@H](C)C(=O)N3C[C@H](C)C[C@H]3C(=O)O[C@H]2C)cc1	0.05 (≈ 0.0404 µg/mL)	0.05 (≈ 0.0404 µg/mL)	100 (≈ 80.8 µg/mL)	IC50 [4]: 40 µM; MIC [9]: 0.2 µM (≈ 0.162 µg/mL); MIC [10]: 0.05 µM (≈ 0.0404 µg/mL)
Cc1ccc(NC(=O)N[C@@H](Cc2cc(F)cc(F)c2)C(=O)N[C@@H]2C(=O)N3C[C@H](O)C[C@H]3C(=O)N(C)[C@@H](C)C(=O)N[C@@H](C)C(=O)N3C[C@@H](C)C[C@H]3C(=O)O[C@H]2C)cc1	–	–	> 200	IC50 [4]: > 100 µM; EC50 [11]: 370 nM
